Data set [1] in a line: Viscosity of formulation components. Type of data set: physicochemical. As to conditions: neat component as listed in formulation tables.
For data set [2] the following is noted: nasal gel, carbopol in PEG 400, rats; cited from earlier work.
The nature of data set [3]: Intranasal versus intravenous pharmacokinetics in New Zealand White rabbits. The following applies: 5 mg/mL in mPEG 350, 50 μL into each nasal cavity.
Procedure: In this Example, 10 mg lorazepam is dissolved in 2 mL of mPEG 350 using ultrasound to obtain a solution containing 5 mg/mL of lorazepam. 50 μL of the resulting composition is administered into each nasal cavity of male New Zealand White rabbits held in a supine position during, and then one minute after application. An Eppendorf pipette is used for each application. After administration, blood samples then are harvested from a marginal ear vein at 0, 2, 5, 10, 15, 30 and 60 minutes, and the lorazepam concentration determined by high performance liquid chromatography (HPLC). The pharmacokinetics of lorazepam delivery via intranasal administration can then be compared with the pharmacokinetics of lorazepam delivery by intravenous administration.
In this Example, 10 mg of midazolam is dissolved in 2 mL of mPEG 350 using ultrasound to obtain a solution containing 5 mg/mL midazolam. 50 μL of the resulting composition is then administered into each nasal cavity of male New Zealand White rabbits, held in a supine position during, and then one minute after application. After administration, blood samples then are harvested from a marginal ear vein at 0, 2, 5, 10, 15, 30 and 60 minutes, and the midazolam concentration determined by HPLC. […]
For data set [4] the following is noted: after nasal administration, adults; cited from earlier work.

Turning to `O` [Water], the “Viscosity (cP) of component” value in data set [1] is given as 1 cP. As to `COC(=O)C1=C(C)NC(C)=C(C(=O)OC)C1c1ccccc1[N+](=O)[O-]` [nifedipine], in data set [2], the “Time to peak plasma concentration” value is 30 min. For `Cc1ncc2n1-c1ccc(Cl)cc1C(c1ccccc1F)=NC2` [midazolam], in data set [3], the “Pharmacokinetics of intranasal versus intravenous administration” value was “comparable to those of the intravenously administered midazolam”. With `O=C1Nc2ccc(Cl)cc2C(c2ccccc2Cl)=NC1O` (stereo not drawn) [lorazepam], the “Time to peak concentration” value in data set [4] is 2.3 h. In addition, the “Pharmacokinetics of intranasal versus intravenous administration” value in data set [3] is on record as “comparable to those of the intravenously administered lorazepam”.

For the compound `CC(O)CO` (stereo not drawn) [Propylene glycol], the “Viscosity (cP) of component” value in data set [1] was 40 cP.

These data come from patent publication US10052333B2, “Methods and systems for the delivery of a therapeutic agent” (HANANJA EHF, priority 2007, dated 2018).
